Test results published in patent US20210361638A1, “FXR AGONISTS FOR THE TREATMENT OF LIVER DISEASES” (NOVARTIS AG, priority 2017, published 2021).
“Also recorded” adds a separate entry of the source.

Assays:
NASH subjects = settings: FLINT trial; placebo-treated patients 6%; cited from earlier work
FGR5 = FGR5 effects (specificity)
FGF19 = test: Pharmacodynamic marker FGF19 with increasing doses; assay type: in vivo; settings: increasing doses up to 3000 μg
STAM mice = test: STAM mouse model of NASH; settings: for NAFLD activity score (NAS): doses 0.1 and 0.3 mg/kg, qd orally weeks 9-12; for Sirius Red-positive areas (pericellular fibrosis): tropifexor 0.03, 0.1, 0.3 mg/kg; for liver triglycerides: tropifexor qd orally weeks 9-12
Description: Further experiments in the STAM model were performed: 2-day old male C57Bl/6J mice were injected with streptozotocin and placed on a high-fat diet (HFD) from weeks 4-12 (HFD-32; CLEA-Japan, Tokyo, Japan). […] Hematoxylin & eosin (H&E)-stained sections were evaluated for nonalcoholic fatty liver disease (NAFLD) activity score (NAS) according to previously defined criteria.
Liver sections were fixed in 4% paraformaldehyde for 48 h and shipped for histopathological analysis.

[1] = Exposure and exploratory exposure-response analysis in NASH patients; assay type: in vivo, human
[2] = tested on: ANIT-induced cholestatic rats; test: ANIT-induced cholestasis rat model; assay type: in vivo, Sprague-Dawley (SD) rats
Description: Experimental protocols were approved by the local Animal Care and Use Committee and were in compliance with Animal Welfare Act regulations and US regulation (Guide for the Care and Use of Laboratory Animals). […] . The tropifexor-treated rats were sacrificed at 1 and 7 h (n=3/time point) and OCA-treated rats were sacrificed at 1, 3, and 7 h (n=3/time point) after the final dose on day 14 for analysis of target gene expression and serum biomarkers. […] .

NASH mice = test: Diet-induced (AMLN diet) insulin-resistant NASH mouse model; assay type: in vivo, C57B16 mice
Text: A separate model for diet-induced NASH was developed as described by Trevaskis et al. Male C57B16 mice aged […] were maintained on a high fat (40% kcal; Primex), high fructose (22% by weight), and high cholesterol (2% by weight) diet (Research Diets Inc., New Brunswick, N.J. cat. no. D09100301) for 26 weeks to induce NASH. Control animals received low-fat diet (10% kcal) with no fructose or cholesterol (Research Diets, cat. no. D09100304). […] . Expression of collagen, type I, alpha 1 (Col1a1) and tissue inhibitor of metalloproteinase 1 (Timp1) genes was analyzed by real time quantitative PCR.

dogs = test: Oral gavage toxicity studies in dogs for up to 39 weeks

## CC[C@H]1[C@@H](O)[C@@H]2[C@H](CC[C@]3(C)[C@@H]([C@H](C)CCC(=O)O)CC[C@@H]23)[C@@]2(C)CC[C@@H](O)C[C@@H]12 [OCA, 6α-ethyl-chenodeoxycholic acid]
NASH subjects
  patients with pruritus: 23%

## O=C(O)c1cc(F)c2nc(N3C4CC[C@H]3C[C@H](OCc3c(-c5ccccc5OC(F)(F)F)noc3C3CC3)C4)sc2c1 [tropifexor, 2-[(1R,3r,5S)-3-({5-cyclopropyl-3-[2-(trifluoromethoxy)phenyl]-1,2-oxazol-4-yl}methoxy)-8-azabicyclo[3.2.1]octan-8-yl]-4-fluoro-1,3-benzothiazole-6-carboxylic acid]
FGR5
  FGR5 effects: no FGR5 effects
FGF19
  pharmacodynamic marker FGF19: continues to rise
STAM mice; FIG. 2 legend
  Plasma cholesterol levels: significantly reduced
STAM mice
  NAFLD activity score (NAS): significantly reduced
  Sirius Red-positive areas (pericellular fibrosis): significantly reduced
  liver triglycerides: significantly reduced
STAM mice; listed as LJN452
  NAFLD activity score (NAS): significant decrease
  liver triglycerides: reduction
STAM mice; mouse, in vivo
  fibrosis area in comparison with baseline group: decreased
  resolution of the NASH phenotype, comparison with OCA: more effectively than OCA
STAM mice; listed as Tropifexor
  Sirius Red-positive areas (pericellular fibrosis): statistically significant dose-dependent reduction
[1]; 200 μg daily
  predicted exposure in NASH patients: approximately 80 ng·hr/ml
[1]; at 200 μg
  exposure level in NASH patients: 80 ng·h/mL
[2]; FIG. 1D, vs vehicle-treated ANIT livers
  quantitation of collagen deposition (fibrosis): significantly decreased
[2]; FIG. 1 legend
  serum biochemistry parameters, liver damage, and fibrosis: improves
[2]; chronic ANIT treatment, FIG. 1C
  collagen deposition and liver fibrosis: highly reduced
[2]; doses as low as 0.3 mg/kg, oral qd 5 days, vs vehicle-treated ANIT rats
  AST, ALT, total BAs, total bilirubin, and GGT levels: marked reduction
[2]; rat, in vivo
  reduction of cholestatic disease markers, comparison with OCA: more effective than OCA
[2]; vs vehicle-treated cholestatic rats, 0.03, 0.3, 1 mg/kg
  liver histology: necrosis of the bile duct epithelium, bile duct hyperplasia, inflammatory cell infiltrates: dose-dependent improvement
NASH mice; mid- and high dose tropifexor
  hepatic crown-like structures: completely eliminated
NASH mice; mid-dose level
  ALT and AST levels: normalized
NASH mice; mouse, in vivo
  collagen deposition in liver (fibrosis), Trichrome staining: strongly abrogates; also recorded: reverses
  steatosis by quantification of liver triglycerides: Dose-dependent reduction
NASH mice; real time quantitative PCR
  mRNA levels of fibrogenic markers Col1a1 and TIMP1: dramatically reduced
NASH mice; relative to vehicle-treated controls, 4 weeks qd orally
  ALT and AST: dose-dependent reduction
NASH mice; therapeutic mode
  liver inflammation, steatosis, and fibrosis: resolved
dogs; females
  Mean AUC0-24 h at which hepatocellular hypertrophy was adverse: 507 ng·h/mL
dogs; males
  Mean AUC0-24 h at which hepatocellular hypertrophy was adverse: 898 ng·h/mL
